“Also recorded” adds a separate entry of the source.
Columns and labels:
[1] = tested on: RAW macrophages; experiment: IL-6 expression of RAW macrophages with LPS and NF-kB inhibitors (Example 2)
[2] = tested on: systemic TNF-a and IL-6; experiment: Systemic cytokines after vaccination with NF-kB inhibitor, CpG and ovalbumin (Example 2); type: in vivo, mouse; settings: one hour post-vaccination
[3] = tested on: RAW 264.7 macrophages; experiment: RAW macrophage cytokine analysis, IL-6 with LPS (Example 3); type: cell-based, mouse; settings: for inhibition of IL-6 expression in vitro: capsaicin 200 μM, honokiol 20 μM, WA 400 nM
Excerpt: To begin exploring alternative NF-κB inhibitors, the inventors examined the literature for promising candidates. Due to the strong correlation between NF-KB activation and sepsis, cancer and autoimmune disorders, a large library of NF-κB inhibitors have been identified. The inventors first wanted to analyze the potential of a variety small molecule NF-κB inhibitors to inhibit inflammation in vitro in combination with lipopolysaccharide (LPS), a TLR4 agonist. The inventors chose several common commercially available NF-κB inhibitors and tested them in RAW macrophages. […] To determine if immune potentiation was specific to NFkB or general to all anti-inflammatory molecules, the inventors included the most common, FDA approved anti-inflammatory drugs acetaminophen (10 mM) and ibuprofen (800 μM). The inventors treated RAW macrophages with inhibitors and LPS and assayed the supernatant for IL-6 secretion (FIG. 18A).
The inventors examined the activities of the synthesized compounds in order to understand how the various functional groups affect anti-inflammatory action or adaptive immune response (FIGS. 23, 25). The inventors treated RAW macrophages with honokiol derivatives and LPS and analyzed IL-6 expression. The addition of LPS alone without a honokiol derivative gave high levels of IL-6 expression (6848 pg/mL). The addition of honokiol decreased IL-6 levels to 260 pg/mL, a decrease of 26-fold.
RAW macrophage cytokine analysis: RAW 264.7 macrophages were passaged and plated in a cell culture treated 12-well plate at 0.5×10^6 cells/well in 1 mL DMEM containing 10% FBS. Cells were grown for 2 days. Media was exchanged for 1 mL DMEM containing 10% HIFBS. Inhibitors were added at indicated concentrations and incubated for 45 min. After 45 min, LPS was added at 100 ng/mL and incubated at 37° C. and 5% CO2 for 24 h. Cell supernatant was removed and analyzed using BD Cytometric Bead Array Mouse Inflammation Kit.

[4] = tested on: systemic TNF-a and IL-6; experiment: Systemic cytokines, AddaVax vaccines with CpG or Pam3CSK4 (Example 2); type: in vivo, mouse; settings: CpG or Pam3CSK4, ovalbumin, one hour
[5] = tested on: systemic cytokines; experiment: Plasma cytokine analysis after OVA/CpG/AddaVax vaccination (Example 3); type: in vivo, mouse; settings: for systemic MCP-1 / systemic IFN-γ: combined with CpG; for systemic IFN-γ: 24 h; for systemic IL-6 vs CpG alone, dose study / systemic TNF-α vs CpG alone, all doses / systemic TNF-α, comparison between doses: honokiol 200, 400, 800 μg, capsaicin 1, 5, 20 μg
[6] = tested on: ovalbumin (OVA); experiment: Anti-OVA antibody quantification day 21 (Example 3); type: in vivo, mouse
[7] = tested on: ovalbumin; experiment: Anti-ovalbumin antibody titer day 21, AddaVax vaccines (Example 2); type: in vivo, mouse
Excerpt: The inventors next wanted to examine how capsaicin, honokiol and WA would work with other TLR agonists. Additionally, the inventors wanted to compare these inhibitors to the most commonly used anti-inflammatory drugs, ibuprofen and acetaminophen. The inventors formulated the vaccines using AddaVax, an oil-in-water emulsion to ensure solubility of the inhibitors. The inventors used either CpG, a TLR 9 agonist or Pam3CSK4, a TLR 1/2 agonist as the immune adjuvant and ovalbumin as the antigen. The inventors analyzed systemic cytokines one hour post-vaccination. […] On day 21 the inventors analyzed the anti-ovalbumin antibody titer.

[8] = tested on: systemic TNF-α and IL-6; experiment: Systemic cytokines after gp120 vaccination; type: in vivo, mouse; settings: gp120 antigen, 1 h
Description: To examine how this would translate in vivo, the inventors vaccinated mice with CpG (50 μg), Pam3CSK4 (20 μg) and R848 (50 μg) using gp120 as the antigen.
Mice were anesthetized lightly with isoflurane and injected intramuscularly in the hind leg with 50 uL containing antigen, adjuvant and PBS. […] CpG dose, 50 μg. SN50, 500 TNF-aN, 30 μg. IL-6N, 30 μg.
Blood was collected from mice at specified time points in 0.2 mL heparin coated collection tubes (VWR Scientific). Serum was isolated via centrifugation 2000×g for 5 min. Supernatant was collected and stored at −80° C. until use. Serum was analyzed using BD Cytometric Bead Array Mouse Th1/Th2/Th17 cytokine kit or Mouse Inflammation cytokine kit according to manufacturer's protocol. Briefly, beads containing antibodies for desired cytokines were mixed with 50 μL serum and 50 μL PE detection reagent and incubated for 2 h. Beads were washed and analyzed using BD Accuri C6 flow cytometer. Data was analyzed using BD Accuri C6 software and Graphpad Prism.

[9] = tested on: non-human primate (NHP) primary peripheral blood mononuclear cells (PBMCs); experiment: NHP PBMCs stimulated with LPS with or without SN50; type: cell-based; settings: 6 h
Description: To understand how this may translate to human vaccinations, the inventors treated THP-1 monocytes with […] LPS with or without SN50. […] Additionally, the inventors examined the effects of SN50 on non-human primate (NHP) primary peripheral blood mononuclear cells (PBMCs). The inventors stimulated NHP PBMCs with SN50 and LPS or LPS alone for 6 h and analyzed the cell supernatant for pro-inflammatory cytokines. […] This implies that SN50 may work similarly in NHP and humans as it does in mice.

[10] = Pain response observed after vaccination; type: in vivo, mouse; settings: original dose 20 μg
[11] = inhibitor 45 min before 100 ng/mL LPS, 3 h
[12] = 100 μg OVA, 50 μg CpG + inhibitor, AddaVax, 1 h
[13] = 100 μg OVA, 50 μg CpG, AddaVax, 1 h

COc1cc(O)cc(O)c1C(=O)/C=C/c1ccccc1 [cardamonin, Cardamonin]
IL-6 expression [1, 11]: completely inhibited IL-6 expression | IL-6 expression ([1]; inhibitor 45 min before 100 ng/mL LPS, 3 h, listed as Cardamonin): complete reduction of IL-6 to background levels | systemic TNF-a [2]: no change in systemic TNF-a levels compared to CpG alone

C=CCc1ccc(O)c(-c2ccc(O)c(CC=C)c2)c1 [honokiol]
inhibition of IL-6 expression in vitro [3]: most effective at inhibiting IL-6 expression in vitro | IL-6 expression ([3]; honokiol derivative study): 260 pg/mL | decrease of IL-6 vs LPS alone ([3]; honokiol derivative study): 26 fold | IL-6 expression [1, 11]: decreases in proinflammatory cytokine activity without entirely blocking expression; also recorded: reduced levels of IL-6 | systemic IL-6 [2]: about a two-fold decrease in IL-6 levels | systemic TNF-a [2]: reduced the TNF-a levels by two-fold | decrease in systemic IL-6 [4]: 4 fold | decrease of systemic TNF-α vs CpG [5, 12]: 2.3 fold | reduction of systemic IL-6 vs CpG [5, 12]: 3.5 fold | systemic IL-6 [5, 13]: 266 pg/mL | systemic MCP-1 [5]: slightly elevated MCP-1 levels | systemic IFN-γ [5]: increased IFN-γ levels at 24 h compared to CpG alone | systemic IL-6 vs CpG alone, dose study ([5]; 1 h): only decreased with 400 μg and 800 μg honokiol and 20 μg capsaicin | systemic TNF-α vs CpG alone, all doses ([5]; 1 h): significant decrease in TNF-α expression compared to CpG alone | systemic TNF-α, comparison between doses ([5]; 1 h): no significant difference between the different doses | anti-OVA antibodies vs CpG alone, all doses ([6]; honokiol 200, 400, 800 μg): all doses of honokiol increased levels of anti-OVA antibodies compared to CpG alone | dose with the highest anti-OVA antibody level ([6]; honokiol 200, 400, 800 μg): 400 µg

CC(=O)Nc1ccc(O)cc1 [acetaminophen]
anti-ovalbumin antibody titer [7]: decreases in antibody titer | systemic IL-6 [4]: less effective at decreasing systemic IL-6 levels | decrease of systemic TNF-α vs CpG [5, 12]: 1.8 fold | systemic IL-6 [5, 12]: did not decrease IL-6 expression significantly | anti-OVA antibody level lower than CpG alone [6]: 2.4 fold

Pam3CSK4
systemic TNF-α and IL-6, effect of adding SN50 to the named adjuvant [8]: significant decrease in systemic cytokines

CC(/C=C/C(=O)NO)=C\[C@@H](C)C(=O)c1ccc(N(C)C)cc1 [TSA]
IL-6 expression [1, 11]: complete reduction of IL-6 to background levels

lipopolysaccharide [LPS]
IL-6 expression ([3]; honokiol derivative study): 6848 pg/mL | IL-6 expression ([1]; 100 ng/mL LPS, 3 h post-activation): 362 pg/mL | TNF-α and IL-6 in the cell supernatant [9]: high levels of TNF-α and IL-6

Oc1ccc(C=Cc2cc(O)cc(O)c2)cc1 [resveratrol]
IL-6 expression [1, 11]: decreases in proinflammatory cytokine activity without entirely blocking expression

COc1cc(/C=C/C(=O)CC(=O)/C=C/c2ccc(O)c(OC)c2)ccc1O [curcumin]
IL-6 expression [1, 11]: did not demonstrate a change in IL-6 activity in vitro | systemic IL-6 [2]: did not significantly alter the IL-6 levels | systemic TNF-a [2]: increasing the average expression levels

O=C(/C=C/c1ccc(O)c(O)c1)OCCc1ccccc1 [CAPE, Caffeic acid phenethyl ester]
IL-6 expression [1, 11]: complete reduction of IL-6 to background levels; also recorded: completely inhibited IL-6 expression | systemic IL-6 [2]: about a two-fold decrease in IL-6 levels | systemic TNF-a [2]: no change in systemic TNF-a levels compared to CpG alone

CCOCc1nc2c(N)nc3ccccc3c2n1CC(C)(C)O [R848]
systemic TNF-α and IL-6, effect of adding SN50 to the named adjuvant [8]: significant decrease in systemic cytokines

COc1cc(O)c2c(c1)/C=C/C[C@H](O)[C@H](O)C(=O)/C=C\C[C@H](C)OC2=O [5-z-o, 5Z-7-Oxozeaenol]
IL-6 expression [1, 11]: complete reduction of IL-6 to background levels; also recorded: completely inhibited IL-6 expression

O=c1cc(-c2ccc(O)c(O)c2)oc2cc(O)cc(O)c12 [luteolin]
IL-6 expression [1, 11]: decreases in proinflammatory cytokine activity without entirely blocking expression

CC1=C(CO)C(=O)O[C@@H]([C@@H](C)[C@H]2CC[C@H]3[C@@H]4C[C@H]5O[C@]56[C@@H](O)C=CC(=O)[C@]6(C)[C@H]4CC[C@]23C)C1 [WA, Withaferin A]
inhibition of IL-6 expression in vitro [3]: most effective at inhibiting IL-6 expression in vitro | IL-6 expression [1, 11]: decreases in proinflammatory cytokine activity without entirely blocking expression; also recorded: completely inhibited IL-6 expression | systemic IL-6 [2]: about a two-fold decrease in IL-6 levels | systemic TNF-a [2]: no change in systemic TNF-a levels compared to CpG alone | systemic IL-6 [4]: less effective at decreasing systemic IL-6 levels | decrease of systemic TNF-α vs CpG [5, 12]: 1.8 fold | systemic IL-6 [5, 12]: did not decrease IL-6 expression significantly

COc1cc(CNC(=O)CCCCC=CC(C)C)ccc1O [capsaicin, 8-methyl-N-vanillyl-6-nonenamide]
inhibition of IL-6 expression in vitro [3]: most effective at inhibiting IL-6 expression in vitro | pain response [10]: pain response was observed | IL-6 expression [1, 11]: reduced levels of IL-6 | systemic IL-6 [2]: IL-6 levels consistent with PBS injection | systemic TNF-a [2]: returning the systemic TNF-a levels to background | systemic IL-6 [4]: decreased to levels consistent with PBS | systemic TNF-a [4]: comparable to PBS alone | decrease of systemic TNF-α vs CpG [5, 12]: 28 fold | reduction of systemic IL-6 vs CpG [5, 12]: 20 fold | systemic IL-6 [5, 13]: 47.4 pg/mL | systemic MCP-1 [5]: slightly elevated MCP-1 levels | systemic IFN-γ [5]: increased IFN-γ levels at 24 h compared to CpG alone | systemic IL-6 vs CpG alone, dose study ([5]; 1 h): only decreased with 400 μg and 800 μg honokiol and 20 μg capsaicin | systemic TNF-α vs CpG alone, all doses ([5]; 1 h): decreased TNF-α levels significantly across all doses compared to CpG alone | systemic TNF-α, comparison between doses ([5]; 1 h): Doses of 5 μg and 20 μg decreased levels of TNF-α significantly more than 1 μg | anti-OVA antibodies in the serum vs CpG alone ([6]; 1 μg and 5 μg): did not change level of anti-OVA antibodies in the serum compared to CpG alone | anti-OVA antibodies in the serum vs CpG alone ([6]; 20 μg): significantly increased serum levels

CC(C)Cc1ccc(C(C)C(=O)O)cc1 (stereo not shown) [ibuprofen]
anti-ovalbumin antibody titer [7]: decreases in antibody titer | systemic IL-6 [4]: less effective at decreasing systemic IL-6 levels | decrease of systemic TNF-α vs CpG [5, 12]: 1.4 fold | systemic IL-6 [5, 12]: did not decrease IL-6 expression significantly | systemic TNF-α [5, 13]: 738 pg/mL | anti-OVA antibody level lower than CpG alone [6]: 3.2 fold
